Assays:
[1] = The drug is tested on Z-012 corresponding to metagenome with ENA study accession number: PRJEB37062 and ENA sample accession number: ERS12561812 for biotransformation under anaerobic condition. The drug concentrations were measured over 9 timepoints collected between 0 and 24 hours of incubation by liquid-chromatography-coupled mass spectrometry (LC–MS); conditions: 2 µM
[2] = (§1) The drug is tested on WLS-027 corresponding to human gut metagenome with ENA study accession number: PRJEB37062 and ENA sample accession number: ERS12561744 for biotransformation under anaerobic condition. The drug concentrations were measured over 9 timepoints collected between 0 and 24 hours of incubation by liquid-chromatography-coupled mass spectrometry (LC–MS); conditions: 2 µM
[3] = as §1, with “Z-011” for “WLS-027”, “mouse” for “human”, “ERS12561811” for “ERS12561744”; conditions: 2 µM
[4] = human gut metagenome, 24 h, 2 µM
[5] = as §1, with “WLS-098” for “WLS-027”, “ERS12561754” for “ERS12561744”; conditions: 2 µM
[6] = human gut metagenome, 24 h, 2 µM; remark: listed apart in the source
[7] = as §1, with “WLS-006” for “WLS-027”, “ERS12561741” for “ERS12561744”; conditions: 2 µM
[8] = as §1, with “WLS-350” for “WLS-027”, “ERS12561789” for “ERS12561744”; conditions: 2 µM
[9] = as §1, with “WLS-082” for “WLS-027”, “ERS12561751” for “ERS12561744”; conditions: 2 µM
Also: call rule not given here.

Bacterial Biotransformation [1]: Compound NOT metabolized | Bacterial Biotransformation [2]: Compound NOT metabolized | Bacterial Biotransformation [3]: Compound NOT metabolized | Bacterial Biotransformation [4]: Compound NOT metabolized | Bacterial Biotransformation [5]: Compound NOT metabolized | Bacterial Biotransformation [6]: Compound NOT metabolized | Bacterial Biotransformation [7]: Compound NOT metabolized | Bacterial Biotransformation [8]: Compound NOT metabolized | Bacterial Biotransformation [9]: Compound NOT metabolized
Structure (SMILES): CN1[C@@H]2CC[C@H]1C[C@@H](OC(=O)c1c[nH]c3ccccc13)C2 [TROPISETRON]

— ChEMBL document CHEMBL5724914, “Linking interpersonal differences in gut microbiota composition and drug biotransformation activity” (2024)
